What was measured:
Format in all cases: cell-based
[1] = test system: HCT-116 colorectal cancer cell line; assay: CCK-8 proliferation inhibition; conditions: Homo sapiens, HCT-116, 72 h, concentration of 30 μM; 72 hours; CCK-8; read-out: HCT116 inhibition rate/%
Summary of the method: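 Growth inhibition is read by CCK-8 (1:10 dilution) after 72 h of compound exposure. HCT-116 cells grow in McCoy's 5A containing 10% newborn bovine serum at 2000 cells/well, with 1‰ DMSO as vehicle control.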

[2] = test system: methicillin-resistant Staphylococcus aureus (MRSA); assay: MIC, two-fold agar dilution (CLSI), clinical isolates
Source text: (§1) 1. The invention adopts the two-fold agar dilution method recommended by the operating procedure of antimicrobial susceptibility testing set by American Clinical and Laboratory Standards Institute (CLSI) to determine the Minimum Inhibitory Concentration (MIC) of the test samples against the tested strains.

[3] = test system: Escherichia coli (including ESBLs, non-ESBLs); assay: as above
Source text: as §1

[4] = test system: Enterococcus faecalis (EFA); assay: as above
Source text: as §1

[5] = test system: methicillin-sensitive Staphylococcus aureus (MSSA); assay: as above
Source text: as §1

[6] = test system: methicillin-sensitive Staphylococcus epidermidis (MSSE); assay: as above
Source text: as §1

[7] = test system: Moraxella catarrhalis (BCA); assay: as above; conditions: for Anti-bacterial activity (MIC), strain BCA 14-10: clinical isolate BCA 14-10
Source text: as §1

[8] = test system: methicillin-resistant Staphylococcus epidermidis (MRSE); assay: as above
Source text: as §1

[9] = test system: Enterococcus faecium (EFM); assay: as above
Source text: as §1

[10] = test system: Streptococcus pneoumoniae (SPN); assay: as above
Source text: as §1

O=CN(O)C[C@@H](CC1CCCC1)C(=O)N1CC2(CC2)C[C@H]1C(=O)Nc1ccc(F)cn1 [Example 28]
32 µg/mL: MIC (anti-bacterial activity) ([3]; strain ECO+ 15-4) | MIC (anti-bacterial activity) ([3]; strain ECO− 15-1) | MIC (anti-bacterial activity) ([3]; strain ECO− 15-2)
16 µg/mL: MIC (anti-bacterial activity) ([3]; strain ECO+ 15-1)
0.06 µg/mL: MIC (anti-bacterial activity) ([6]; strain MSSE 15-6)
2 µg/mL: MIC (anti-bacterial activity) ([4]; strain EFA 15-1) | MIC (anti-bacterial activity) ([4]; strain EFA 15-2) | MIC (anti-bacterial activity) ([4]; strain EFA 15-3) | MIC (anti-bacterial activity) ([4]; strain EFA 15-4) | MIC (anti-bacterial activity) ([4]; strain EFA 15-5) | MIC (anti-bacterial activity) ([4]; strain EFA 15-6) | MIC (anti-bacterial activity) ([4]; strain EFA 15-9)
0.25 µg/mL: Anti-bacterial activity (MIC), strain BCA 14-10 [7] | MIC (anti-bacterial activity) ([7]; strain BCA 14-5)
0.5 µg/mL: MIC (anti-bacterial activity) ([7]; strain BCA 14-8) | MIC (anti-bacterial activity) ([8]; strain MRSE 15-2) | MIC (anti-bacterial activity) ([8]; strain MRSE 15-3) | MIC (anti-bacterial activity) ([8]; strain MRSE 15-7) | MIC (anti-bacterial activity) ([9]; strain EFM 15-1)
1 µg/mL: MIC (anti-bacterial activity) ([7]; strain BCA 14-1) | MIC (anti-bacterial activity) ([7]; strain BCA 14-4) | MIC (anti-bacterial activity) ([7]; strain BCA 14-6) | MIC (anti-bacterial activity) ([9]; strain EFM 15-2) | MIC (anti-bacterial activity) ([9]; strain EFM 15-4) | MIC (anti-bacterial activity) ([9]; strain EFM 15-5) | MIC (anti-bacterial activity) ([9]; strain EFM 15-6) | MIC (anti-bacterial activity) ([10]; strain SPN 16-4)
64 µg/mL: MIC (anti-bacterial activity) ([3]; strain ECO+ 15-2) | MIC (anti-bacterial activity) ([3]; strain ECO+ 15-3) | MIC (anti-bacterial activity) ([3]; strain ECO− 15-3) | MIC (anti-bacterial activity) ([3]; strain ECO− 15-4)
21%: inhibition at 30 µM [1]
0.125 µg/mL: MIC (anti-bacterial activity) ([2]; strain MRSA 15-1) | MIC (anti-bacterial activity) ([2]; strain MRSA 15-2) | MIC (anti-bacterial activity) ([2]; strain MRSA 15-3) | MIC (anti-bacterial activity) ([2]; strain MRSA 15-4) | MIC (anti-bacterial activity) ([5]; strain MSSA 15-3) | MIC (anti-bacterial activity) ([5]; strain MSSA 15-4) | MIC (anti-bacterial activity) ([5]; strain MSSA 15-5) | MIC (anti-bacterial activity) ([5]; strain MSSA 15-6) | MIC (anti-bacterial activity) ([6]; strain MSSE 15-3) | MIC (anti-bacterial activity) ([6]; strain MSSE 15-4) | MIC (anti-bacterial activity) ([6]; strain MSSE 15-5) | MIC (anti-bacterial activity) ([7]; strain BCA 14-7) | MIC (anti-bacterial activity) ([8]; strain MRSE 15-1) | MIC (anti-bacterial activity) ([9]; strain EFM 15-3)

O=CN(O)C[C@@H](CC1CCCC1)C(=O)N1CC2(CC2)C[C@H]1C(=O)Nc1ncccc1F [Example 30, (S)-5-((R)-3-cyclopentyl-2-((N-hydroxyformamido)methyl)propionyl)-N-(3-fluoropyridin-2-yl)-5-spiro[2.4]heptane-6-carboxamide]
17%: inhibition at 30 µM [1]
2 µg/mL: MIC (anti-bacterial activity) ([4]; strain EFA 15-6) | MIC (anti-bacterial activity) ([6]; strain MSSE 15-3) | MIC (anti-bacterial activity) ([6]; strain MSSE 15-4) | MIC (anti-bacterial activity) ([6]; strain MSSE 15-5) | MIC (anti-bacterial activity) ([7]; strain BCA 14-1) | MIC (anti-bacterial activity) ([7]; strain BCA 14-4) | MIC (anti-bacterial activity) ([8]; strain MRSE 15-2) | MIC (anti-bacterial activity) ([8]; strain MRSE 15-3) | MIC (anti-bacterial activity) ([8]; strain MRSE 15-7) | MIC (anti-bacterial activity) ([9]; strain EFM 15-1)
1 µg/mL: MIC (anti-bacterial activity) ([7]; strain BCA 14-5) | MIC (anti-bacterial activity) ([7]; strain BCA 14-7) | MIC (anti-bacterial activity) ([7]; strain BCA 14-8) | MIC (anti-bacterial activity) ([9]; strain EFM 15-2) | MIC (anti-bacterial activity) ([9]; strain EFM 15-4) | MIC (anti-bacterial activity) ([9]; strain EFM 15-6) | MIC (anti-bacterial activity) ([10]; strain SPN 16-4)
0.25 µg/mL: MIC (anti-bacterial activity) ([9]; strain EFM 15-3)
32 µg/mL: MIC (anti-bacterial activity) ([3]; strain ECO+ 15-1)
4 µg/mL: MIC (anti-bacterial activity) ([4]; strain EFA 15-1) | MIC (anti-bacterial activity) ([4]; strain EFA 15-2) | MIC (anti-bacterial activity) ([4]; strain EFA 15-3) | MIC (anti-bacterial activity) ([4]; strain EFA 15-4) | MIC (anti-bacterial activity) ([4]; strain EFA 15-5) | MIC (anti-bacterial activity) ([7]; strain BCA 14-6) | MIC (anti-bacterial activity) ([9]; strain EFM 15-5) | MIC (anti-bacterial activity) ([10]; strain SPN 16-2)
> 32 µg/mL: MIC (anti-bacterial activity) ([3]; strain ECO+ 15-2) | MIC (anti-bacterial activity) ([3]; strain ECO+ 15-3) | MIC (anti-bacterial activity) ([3]; strain ECO+ 15-4) | MIC (anti-bacterial activity) ([3]; strain ECO− 15-1) | MIC (anti-bacterial activity) ([3]; strain ECO− 15-2) | MIC (anti-bacterial activity) ([3]; strain ECO− 15-3) | MIC (anti-bacterial activity) ([3]; strain ECO− 15-4)
8 µg/mL: MIC (anti-bacterial activity) ([4]; strain EFA 15-9)
0.5 µg/mL: MIC (anti-bacterial activity) ([2]; strain MRSA 15-1) | MIC (anti-bacterial activity) ([2]; strain MRSA 15-2) | MIC (anti-bacterial activity) ([2]; strain MRSA 15-3) | MIC (anti-bacterial activity) ([2]; strain MRSA 15-4) | MIC (anti-bacterial activity) ([5]; strain MSSA 15-3) | MIC (anti-bacterial activity) ([5]; strain MSSA 15-4) | MIC (anti-bacterial activity) ([5]; strain MSSA 15-5) | MIC (anti-bacterial activity) ([5]; strain MSSA 15-6) | MIC (anti-bacterial activity) ([6]; strain MSSE 15-6) | Anti-bacterial activity (MIC), strain BCA 14-10 [7] | MIC (anti-bacterial activity) ([8]; strain MRSE 15-1)
